Measured values published in PubChem BioAssay (NCI).
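Briefly, cells in 96-well plates were exposed to five compound concentrations for 48 h, and endpoints were estimated by linear interpolation. TGI denotes the concentration required for complete inhibition of growth.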

Legend:
Assay in all cases: NCI tumour cell line growth inhibition, 48 h
DMS 273 small cell lung = test system: DMS 273 small cell lung
NCI/ADR-RES ovarian = test system: NCI/ADR-RES ovarian
LOX IMVI melanoma = test system: LOX IMVI melanoma
IGROV1 ovarian = test system: IGROV1 ovarian
OVCAR-5 ovarian = test system: OVCAR-5 ovarian
SNB-75 CNS = test system: SNB-75 CNS
SK-MEL-28 melanoma = test system: SK-MEL-28 melanoma
OVCAR-3 ovarian = test system: OVCAR-3 ovarian
KM12 colon = test system: KM12 colon
HOP-92 NSCLC = test system: HOP-92 NSCLC
HOP-62 NSCLC = test system: HOP-62 NSCLC
XF 498 CNS = test system: XF 498 CNS
SF-268 CNS = test system: SF-268 CNS
A498 renal = test system: A498 renal
NCI-H23 lung = test system: NCI-H23 lung
UACC-62 melanoma = test system: UACC-62 melanoma
HL-60(TB) leukemia = test system: HL-60(TB) leukemia
K-562 leukemia = test system: K-562 leukemia
DLD-1 colon = test system: DLD-1 colon
KM20L2 colon = test system: KM20L2 colon
MALME-3M melanoma = test system: MALME-3M melanoma
U251 CNS = test system: U251 CNS
EKVX NSCLC = test system: EKVX NSCLC
P388/ADR leukemia = test system: P388/ADR leukemia
M19-MEL melanoma = test system: M19-MEL melanoma
MCF7 breast = test system: MCF7 breast
SF-539 CNS = test system: SF-539 CNS
SNB-19 CNS = test system: SNB-19 CNS
A549 NSCLC = test system: A549 NSCLC
CAKI-1 renal = test system: CAKI-1 renal
HOP-18 NSCLC = test system: HOP-18 NSCLC
P388 leukemia = test system: P388 leukemia
SN12C renal = test system: SN12C renal
SN12K1 renal = test system: SN12K1 renal
NCI-H460 lung = test system: NCI-H460 lung
UO-31 renal = test system: UO-31 renal
DMS 114 small cell lung = test system: DMS 114 small cell lung
SW-620 colon = test system: SW-620 colon
CCRF-CEM leukemia = test system: CCRF-CEM leukemia
SK-MEL-5 melanoma = test system: SK-MEL-5 melanoma
OVCAR-8 ovarian = test system: OVCAR-8 ovarian
SNB-78 CNS = test system: SNB-78 CNS
NCI-H522 lung = test system: NCI-H522 lung
OVCAR-4 ovarian = test system: OVCAR-4 ovarian
RXF 393 renal = test system: RXF 393 renal
HCT-116 colon = test system: HCT-116 colon
HT29 colon = test system: HT29 colon
HCC-2998 colon = test system: HCC-2998 colon
UACC-257 melanoma = test system: UACC-257 melanoma
SK-MEL-2 melanoma = test system: SK-MEL-2 melanoma
NCI-H226 lung = test system: NCI-H226 lung
SF-295 CNS = test system: SF-295 CNS
SK-OV-3 ovarian = test system: SK-OV-3 ovarian
COLO 205 colon = test system: COLO 205 colon
HCT-15 colon = test system: HCT-15 colon
RPMI-8226 leukemia = test system: RPMI-8226 leukemia
SR leukemia = test system: SR leukemia
M14 melanoma = test system: M14 melanoma
ACHN renal = test system: ACHN renal
LXFL 529 NSCLC = test system: LXFL 529 NSCLC
786-0 renal = test system: 786-0 renal
MOLT-4 leukemia = test system: MOLT-4 leukemia
RXF-631 renal = test system: RXF-631 renal

With `c1ccc2cc3c(cc2c1)OP1(Oc2cccc4cccnc24)(O3)Oc2cc3ccccc3cc2O1` the TGI (DMS 273 small cell lung) was 12.4 µM, the TGI (NCI/ADR-RES ovarian) was 19.2 µM and the TGI (LOX IMVI melanoma) was 22.5 µM. It also gave a TGI (IGROV1 ovarian) of over 100 µM, a TGI (OVCAR-5 ovarian) of 45.6 µM and a TGI (SNB-75 CNS) of 92.1 µM. The TGI (SK-MEL-28 melanoma) was over 100 µM, the TGI (OVCAR-3 ovarian) was 5.45 µM and the TGI (KM12 colon) was 21.8 µM. The TGI (HOP-92 NSCLC) was 76.3 µM, the TGI (HOP-62 NSCLC) was over 73.3 µM and the TGI (XF 498 CNS) was 9.98 µM. The TGI (SF-268 CNS) was over 100 µM, the TGI (A498 renal) was 64.3 µM and the TGI (NCI-H23 lung) was 16.9 µM. For the same molecule, the TGI (UACC-62 melanoma) was 9.39 µM, the TGI (HL-60(TB) leukemia) was 5.78 µM and the TGI (K-562 leukemia) was over 40.3 µM. It also gave a TGI (DLD-1 colon) of over 100 µM, a TGI (KM20L2 colon) of 20.3 µM and a TGI (MALME-3M melanoma) of over 76.8 µM. The TGI (U251 CNS) was over 100 µM, the TGI (EKVX NSCLC) was over 57.3 µM and the TGI (P388/ADR leukemia) was 6.73 µM. It also gave a TGI (M19-MEL melanoma) of 38.1 µM, a TGI (MCF7 breast) of over 100 µM and a TGI (SF-539 CNS) of 49.2 µM. It also gave a TGI (SNB-19 CNS) of over 100 µM, a TGI (A549 NSCLC) of over 100 µM and a TGI (CAKI-1 renal) of 20.6 µM. The TGI (HOP-18 NSCLC) was 56.3 µM, the TGI (P388 leukemia) was 4.57 µM and the TGI (SN12C renal) was over 100 µM. The TGI (SN12K1 renal) was 20.5 µM, the TGI (NCI-H460 lung) was 12.3 µM and the TGI (UO-31 renal) was 20.1 µM. For the same molecule, the TGI (DMS 114 small cell lung) was over 23 µM, the TGI (SW-620 colon) was over 50.2 µM and the TGI (CCRF-CEM leukemia) was over 100 µM. The TGI (SK-MEL-5 melanoma) was 14.8 µM, the TGI (OVCAR-8 ovarian) was over 57.1 µM and the TGI (SNB-78 CNS) was over 100 µM. The TGI (NCI-H522 lung) was 35.4 µM, the TGI (OVCAR-4 ovarian) was 11.8 µM and the TGI (RXF 393 renal) was over 100 µM. For the same molecule, the TGI (HCT-116 colon) was over 100 µM, the TGI (HT29 colon) was 12.6 µM and the TGI (HCC-2998 colon) was 27.2 µM. The TGI (UACC-257 melanoma) was 8.94 µM, the TGI (SK-MEL-2 melanoma) was 79.6 µM and the TGI (NCI-H226 lung) was 44.5 µM. The TGI (SF-295 CNS) was over 58.9 µM, the TGI (SK-OV-3 ovarian) was over 96.6 µM and the TGI (COLO 205 colon) was over 100 µM. It also gave a TGI (HCT-15 colon) of over 100 µM.

For `COc1ccc(/C=C/c2cc(OC)c(OCc3ccccc3)c(OC)c2)cc1`, the TGI (DMS 273 small cell lung) was over 100 µM, the TGI (IGROV1 ovarian) was over 100 µM and the TGI (OVCAR-5 ovarian) was 94.5 µM. The TGI (SNB-75 CNS) was over 100 µM, the TGI (SK-MEL-28 melanoma) was over 100 µM and the TGI (OVCAR-3 ovarian) was over 100 µM. For the same molecule, the TGI (KM12 colon) was over 100 µM, the TGI (HOP-92 NSCLC) was over 100 µM and the TGI (HOP-62 NSCLC) was over 100 µM. For the same molecule, the TGI (XF 498 CNS) was over 100 µM, the TGI (SF-268 CNS) was over 100 µM and the TGI (RPMI-8226 leukemia) was over 100 µM. For the same molecule, the TGI (SR leukemia) was over 100 µM, the TGI (A498 renal) was over 100 µM and the TGI (NCI-H23 lung) was over 100 µM. It also gave a TGI (UACC-62 melanoma) of over 100 µM, a TGI (K-562 leukemia) of over 100 µM and a TGI (DLD-1 colon) of over 100 µM. It also gave a TGI (M14 melanoma) of over 100 µM, a TGI (KM20L2 colon) of over 100 µM and a TGI (MALME-3M melanoma) of over 100 µM. For the same molecule, the TGI (U251 CNS) was over 100 µM, the TGI (EKVX NSCLC) was over 100 µM and the TGI (M19-MEL melanoma) was over 100 µM. The TGI (ACHN renal) was over 100 µM, the TGI (LXFL 529 NSCLC) was over 100 µM and the TGI (SF-539 CNS) was over 100 µM. The TGI (786-0 renal) was over 100 µM, the TGI (SNB-19 CNS) was over 100 µM and the TGI (A549 NSCLC) was over 100 µM. The TGI (CAKI-1 renal) was over 100 µM, the TGI (SN12C renal) was over 100 µM and the TGI (NCI-H460 lung) was over 100 µM. It also gave a TGI (UO-31 renal) of over 100 µM, a TGI (DMS 114 small cell lung) of over 100 µM and a TGI (SW-620 colon) of over 100 µM. The TGI (CCRF-CEM leukemia) was over 100 µM, the TGI (OVCAR-8 ovarian) was over 100 µM and the TGI (SNB-78 CNS) was over 100 µM. For the same molecule, the TGI (NCI-H522 lung) was over 100 µM, the TGI (OVCAR-4 ovarian) was over 100 µM and the TGI (HCT-116 colon) was over 100 µM. For the same molecule, the TGI (HT29 colon) was over 100 µM, the TGI (HCC-2998 colon) was over 100 µM and the TGI (UACC-257 melanoma) was over 100 µM. The TGI (SK-MEL-2 melanoma) was over 100 µM, the TGI (MOLT-4 leukemia) was over 100 µM and the TGI (NCI-H226 lung) was over 100 µM. It also gave a TGI (SK-OV-3 ovarian) of over 100 µM, a TGI (COLO 205 colon) of over 100 µM and a TGI (RXF-631 renal) of over 100 µM.
